Read-outs that look alike come from different tables or passages of the source.
How the values were obtained:
[1] = Apparent complexation constants of known chelating agents, Hg(II); assay type: binding; conditions: pH = 7.4; log Kapp(Hg) - log Kapp(Zn)
Description: (§1) In general, the formation of a complex from a metal M and n ligands L is written: M+nL⇄[M(L)n]
(§2) Associated with this reaction is an apparent complexation constant log Kapp, where: Kapp=[ML]/[M][L]tot in which: • [ML] is the concentration of complex, • [M] is the concentration of metal, and • [L]tot is the concentration of […] ligand (whatever its protonated form).

[2] = Cu(I) affinity by competition with bathocuproine disulfonate (BCS), UV-visible; assay type: binding; conditions: for BCS equivalents (number of equivalents of BCS relative to Cu necessary to displace 50% of the copper complexed by the ligand): [Cu]0 = 0.9 [L]o, 20 mM phosphate buffer, pH 7.4, 298 K; for Cu/Zn Sel. (log Kapp(Cu) - log Kapp(Zn)): Cu(I) versus Zn(II); for Kapp for Cu(I): pH 7.4, 20 mM phosphate buffer
Method: Since the —SH thiol functions of the chelating agents are capable of becoming oxidized in air, all the solutions were prepared in a glovebox under an argon atmosphere. Ligand solutions were then prepared, before each experiment, using water that had been deoxygenated and purified with a Millipore Milli-Q® system containing 20 mM of a solution of phosphate buffer (pH=7.4) and of acetonitrile (v/v: 9/1).
This method uses 5,5′-dithiobis-2-nitrobenzoic acid (DNTB) as indicator, each free thiol group present in the ligand producing 1 equivalent of TNB^2− (ε^412 nm (TNB^2−)=14 150 M^−1.cm^−1, ε^412 nm being the molar extinction coefficient for TNB^2− at 412 nm). The concentrations of the ligand solution are between 30 and 100 μm.
The solutions of Cu(I) copper were prepared by dissolving an appropriate amount of Cu(CH3CN)4 PF6 in deoxygenated acetonitrile. The final concentration is determined by adding an excess of sodium bathocuproine disulfonate (Na2BCS) and by measuring the absorbance of the Cu(BCS)2^3− (λmax=483 nm, ε=13 300 M^−1.cm^−1).
The affinity constants were measured by means of a known competitor having a strong affinity for Cu(I), bathocuproine disulfonate (BCS), which forms Cu(I) complexes of known stability according to the reaction below:
The higher this percentage, the higher the affinity of the sulfur-containing ligand for Cu(I).
The complexes of Cu(I) copper with the ligands are quantitatively determined with bathocuproine disulfonate (BCS) with the aim of measuring their affinity constants. […] The formation of the complex is then carried out by stirring the mixture for 10 minutes under argon.
Aliquots of a solution of bathocuproine disulfonate (BCS) in the same buffer solution are then added to the ligand-copper complex.
The UV-visible spectra are then recorded, and the absorbance stability is verified before the addition of the other aliquots.

[3] = Hg(II) affinity by competition with EDTA; assay type: binding
Method: For Hg(II), which has a very high affinity for thiolate ligands, we performed a competition with EDTA having a known affinity constant (cf. Table IV) according to the following reaction: HgL+EDTA→L+HgEDTA
A solution of mercury is prepared by dissolving HgCl2 in water. An HgL complex is formed by adding aliquots of this mercury solution to a solution of ligand in a 20 mM phosphate buffer solution at pH=7.4, up to 0.9 equivalent. The change in the LMCT band for Hg(II) at 290 nm is subsequently followed by titration with a 5 mM solution of Na2EDTA.

[4] = pH = 7.4; difference matches the Cu(II) and Zn(II) values of the table
Description: as §1, §2

[5] = Apparent complexation constants of known chelating agents, Cu(I); assay type: binding; conditions: pH = 7.4; difference matches the Cu(I) and Zn(II) values of the table
Description: Associated with this reaction is an apparent complexation constant log Kapp, where: Kapp=[ML]/[M][L]tot in which: • [ML] is the concentration of complex, • [M] is the concentration of metal, and • [L]tot is the concentration of free ligand (whatever its protonated form).

Compound `OCC(S)CS` (stereo not drawn) [BAL, 2,3-dimercaptopropanol] has a Hg/Zn selectivity [1] of 12.2.
With `O=C(CN(CC(=O)NC(CS)C(=O)O)CC(=O)NC(CS)C(=O)O)NC(CS)C(=O)O` (stereo not drawn) [Compound 3, NTA(CysOH)3] the “BCS equivalents (number of equivalents of BCS relative to Cu necessary to displace 50% of the copper complexed by the ligand)” value [2] was 3.5 equivalents.
With `CCOC(=O)C(CS)NC(=O)CN(CC(=O)NC(CS)C(=O)OCC)CC(=O)NC(CS)C(=O)OCC` (stereo not drawn) [Compound 4, NTA(CysOC2H5)3] the “Hg/Ca Sel. (log Kapp(Hg) - log Kapp(Ca))” value ([3]; Hg(II) versus Ca(II)) was >19.5, the “Hg/Zn Sel. (log Kapp(Hg) - log Kapp(Zn))” value ([3]; Hg(II) versus Zn(II)) was >13.4 and the “Cu/Ca Sel. (log Kapp(Cu) - log Kapp(Ca))” value ([2]; Cu(I) versus Ca(II)) was >16. The “Cu/Zn Sel. (log Kapp(Cu) - log Kapp(Zn))” value [2] was 9.9, the “BCS equivalents (number of equivalents of BCS relative to Cu necessary to displace 50% of the copper complexed by the ligand)” value [2] was 57 equivalents and the “Kapp for Cu(I)” value [2] was 10^19.
With `NC(=O)[C@H](CS)NC(=O)CN(CC(=O)N[C@@H](CS)C(N)=O)CC(=O)N[C@@H](CS)C(N)=O` [Compound 6, NTA(CysNH2)3] the “BCS equivalents (number of equivalents of BCS relative to Cu necessary to displace 50% of the copper complexed by the ligand)” value [2] was 50 equivalents and the “Kapp for Cu(I)” value [2] was 10^19.
In the case of `CCOC(=O)[C@H](CS)NC(=O)CN1CCN(CC(=O)N[C@@H](CS)C(=O)OCC)CCN(CC(=O)N[C@@H](CS)C(=O)OCC)CC1` [Compound 9, NOTA(CysOC2H5)3], the “Cu/Zn Sel. (log Kapp(Cu) - log Kapp(Zn))” value [2] was 7.5-9.5 and the “BCS equivalents (number of equivalents of BCS relative to Cu necessary to displace 50% of the copper complexed by the ligand)” value [2] was 12 equivalents.
`O=C(O)CN(CCN(CC(=O)O)CC(=O)O)CC(=O)O` [EDTA, ethylenediaminetetraacetic acid] gave a Cu/Zn selectivity [4] of 2.3 and a Hg/Zn selectivity [1] of 5.
Work on `CC(C)(S)[C@@H](N)C(=O)O` [Pen, D-penicillamine] yielded a Hg/Zn selectivity [1] of 9.1 and a Cu/Zn selectivity [5] of 2.5.
`NCCNCCNCCN` [Trien, triethylenetetramine] gave a Cu/Zn selectivity [4] of 8.1 and a Hg/Zn selectivity [1] of 12.7.
